Measured values from US5028587A, “Mixed crystals of insulin and insulin derivatives” (Hoechst Aktiengesellschaft, priority 1987, dated 1991).

Experiments:
[1] = specific activity of the insulin used; conditions: specific activity of the substance used for crystallization
[2] = cited from earlier work
[3] = isoelectric point by isoelectric focusing; assay type: physicochemical; conditions: pH
Source text: It is common to all these insulin derivatives that the additional positive charge(s) which is(are) located on the surface of the molecule confer on the molecule an isoelectric point which is displaced into the neutral range. Depending on the derivative, the isoelectric points measured by isoelectric focusing are from about 5.8 to about 8.5, in particular about 6.2 to about 8.2. This means that the derivatives are less soluble in the neutral range than is unmodified insulin, whose isoelectric point, and thus whose region of maximum insolubility, is at a pH of about 5.4, whereas it is normally in dissolved form in the neutral range.

Substance | activity [1] | in vivo half-life [2] | isoelectric point [3]
Arg2 -(B31-32) human insulin | 27 I.U./mg |  | 
Arg-B31 human insulin | 27 I.U./mg |  | 
Human insulin | 27 I.U./mg |  | 
insulin [unmodified insulin] |  | about 7 minutes | about 5.4
